# Reference: patent US7691875B2, “Imidazopyridine compounds, processes for their preparation and therapeutic uses thereof” (AstraZeneca AB, priority 2003, dated 2010)
# What was measured:
# [1] = Solubility in Fasted State Simulated Intestinal Fluid (FaSSIF); type: physicochemical; conditions: thermodynamic from solid, FaSSIF pH 6.5, 37° C., measured after 24 hours
# Experimental: Solubility in Fasted State Simulated Intestinal Fluid (FaSSIF)
# The method describes a procedure to measure solubility of solid material in PaSSIF (Fasted State Simulated Intestinal Fluid). The FaSSIF solution is an isotonic phosphate buffer where pH is adjusted to 6.5 to reflect pH in the jejunum. Taurocholic acid and lecithin is added to a concentration of 3 mmol/l and 0.75 mmol/l respectively.
# 1 mg of solid material, i.e. of the compound of invention, is added to 1 ml FaSSIF solution and equilibrated at 37° C. Samples are withdrawn after 1 and 24 hours. The samples are transferred to eppendorf tubes and spun at 10000 G and 37° C. for 10 minutes. A suitable volume of the supernatant is removed and diluted to a suitable concentration. The concentrations of the compounds in the samples are analysed with LC/UV/MS.
# [2] = tested on: isolated rabbit gastric glands; assay: Acid secretion inhibition in isolated rabbit gastric glands; type: cell-based; conditions: Oryctolagus cuniculus, in vitro
# Experimental: Acid Secretion Inhibition in Isolated Rabbit Gastric Glands
# Inhibiting effect on acid secretion in vitro in isolated rabbit gastric glands was measured as
# described by Berglindh et al. (1976) Acta Physiol. Scand. 97, 401-414.
# H+,K+-ATPase = H+,K+-ATPase (Homo sapiens, UniProt P20648); assay: Determination of H+,K+-ATPase activity (membrane vesicles, phosphate release); type: biochemical; conditions: 15 min, 37° C., pH 7.4, 10 mM KCl, 2 mM ATP
# H+,K+-ATPase, sequence (P20648 whole entry): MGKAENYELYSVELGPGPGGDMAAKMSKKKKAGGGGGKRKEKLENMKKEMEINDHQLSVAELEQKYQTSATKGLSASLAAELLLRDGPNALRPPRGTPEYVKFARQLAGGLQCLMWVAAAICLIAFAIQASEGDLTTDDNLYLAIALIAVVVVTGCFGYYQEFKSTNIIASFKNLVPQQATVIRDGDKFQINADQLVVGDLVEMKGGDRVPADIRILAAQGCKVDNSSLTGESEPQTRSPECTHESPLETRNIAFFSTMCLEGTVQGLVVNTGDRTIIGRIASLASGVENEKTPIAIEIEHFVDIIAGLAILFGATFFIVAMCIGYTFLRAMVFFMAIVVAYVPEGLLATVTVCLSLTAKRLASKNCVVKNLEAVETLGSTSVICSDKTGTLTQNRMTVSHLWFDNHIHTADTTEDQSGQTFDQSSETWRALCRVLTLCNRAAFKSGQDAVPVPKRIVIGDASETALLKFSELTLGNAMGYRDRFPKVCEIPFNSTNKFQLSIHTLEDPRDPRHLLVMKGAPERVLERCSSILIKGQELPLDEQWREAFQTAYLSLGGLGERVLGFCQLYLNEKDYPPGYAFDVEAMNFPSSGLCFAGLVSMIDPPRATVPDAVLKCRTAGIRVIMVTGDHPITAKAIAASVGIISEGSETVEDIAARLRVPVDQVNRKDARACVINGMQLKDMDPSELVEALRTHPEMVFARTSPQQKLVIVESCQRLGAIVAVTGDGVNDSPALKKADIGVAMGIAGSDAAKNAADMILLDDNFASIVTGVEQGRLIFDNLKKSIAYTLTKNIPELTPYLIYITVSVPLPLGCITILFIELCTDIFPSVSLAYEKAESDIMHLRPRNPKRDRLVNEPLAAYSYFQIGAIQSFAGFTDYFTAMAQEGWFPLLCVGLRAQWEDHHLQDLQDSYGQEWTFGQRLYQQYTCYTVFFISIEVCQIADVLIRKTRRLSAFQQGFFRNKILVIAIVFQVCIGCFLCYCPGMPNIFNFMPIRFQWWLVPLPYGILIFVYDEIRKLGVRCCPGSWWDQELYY
# H+,K+-ATPase, sequence (P51164 whole entry partner): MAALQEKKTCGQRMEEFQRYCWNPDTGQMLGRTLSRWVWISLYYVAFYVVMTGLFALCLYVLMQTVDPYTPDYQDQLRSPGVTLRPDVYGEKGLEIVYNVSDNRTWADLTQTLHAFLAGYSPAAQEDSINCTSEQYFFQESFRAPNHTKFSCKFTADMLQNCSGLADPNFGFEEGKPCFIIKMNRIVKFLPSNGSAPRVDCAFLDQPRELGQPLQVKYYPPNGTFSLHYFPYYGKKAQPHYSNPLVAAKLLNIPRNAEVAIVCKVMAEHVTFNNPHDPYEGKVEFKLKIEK
# Experimental: Detennination of H^+,K^+-ATPase Activity
# Membrane vesicles (2.5 to 5 μg) were incubated for 15 min at +37° C. in 18 mM Pipes/Tris buffer pH 7.4 containing 2 mM MgCl2, 10 mM KCl and 2 mM ATP. The ATPase activity was estimated as release of inorganic phosphate from ATP, as described by LeBel et al. (1978) Anal. Biochem. 85, 86-89.
# [3] = Bioavailability in the conscious dog; type: in vivo; conditions: plasma
# Experimental: Bioavailabiity is assessed by calculating the quotient between the area under blood/plasma concentration (AUC) curve following (i) intraduodenal (i.d.) or oral (p.o.) administration and (ii) intravenous (i.v.) administration from the rat or the dog, respectively.
# The area under the blood concentration vs. time curve, AUC, is determined by the log/linear trapezoidal rule and extrapolated to infinity by dividing the last determined blood concentration by the elimination rate constant in the terminal phase. The systemic bioavailability (F%) following intraduodenal or oral administration is calculated as F(%)=(AUC (p.o. or i.d.)/AUC (i.v.))×100.
# (§1) Inhibition of Gastric Acid Secretion and Bioavailability in the Conscious Dog.
# Blood samples for the analysis of test compound concentration in plasma are taken at intervals up to 4 h after dosing. Plasma is separated and frozen within 30 min after collection and later analyzed. The systemic bioavailability (F%) after oral or i.d. administration is calculated as described above in the rat model.
# [4] = tested on: histamine-stimulated acid secretion; assay: Inhibition of histamine-stimulated gastric acid secretion in the conscious Heidenhain pouch dog; type: in vivo; conditions: 1-3 hours after dosing, mean n=2
# Experimental: as §1
# Labrador retriever or Harrier dogs of either sex are used. They are equipped with a duodenal fistula for the administration of test compounds or vehicle and a cannulated gastric fistula or a Heidenhaim-pouch for the collection of gastric secretion.
# Before secretory tests the animals are fasted for about 18 h but water is freely allowed. Gastric acid secretion is stimulated for up to 6.5 h infusion of histamine dihydrochloride (12 ml/h) at a dose producing about 80 % of the individual maximal secretory response, and gastric juice collected in consecutive 30-min fractions. Test substance or vehicle is given orally, i.d. or i.v., 1 or 1.5 h after starting the histamine infusion, in a volume of 0.5 ml/kg body weight. In the case of oral administration, it should be pointed out that the test compound is administered to the acid secreting main stomach of the Heidenham-pouch dog.
# The acidity of the gastric juice samples are determined by titration to pH 7.0, and the acid output calculated. The acid output in the collection periods after administration of test substance or vehicle are expressed as fractional responses, setting the acid output in the fraction preceding administration to 1.0. Percentage inhibition is calculated from fractional responses elicited by test compound and vehicle.
solubility at 24 h [1] [µM],IC50 [2] [nM],"IC50 (H+,K+-ATPase) [nM]",bioavailability [3] [%],SMILES,mean percentage inhibition of histamine-stimulated acid secretion [4] [%]
218,,,,"CS(=O)(=O)O.Cc1cccc(C)c1CNc1cc(C(=O)NC[C@H](C)O)cn2c(C)c(C)nc12 [8-[(2,6-dimethylbenyl)amino]-N-[(2S)-2-hydroxypropyl]-2,3-dimethylimidazo[1,2-a]pyridine-6-carboxamide mesylate salt]",
,280,750,61,"Cc1cccc(C)c1CNc1cc(C(=O)NCCO)cn2c(C)c(C)nc12 [8-[(2,6-dimethylbenzyl)amino]-N-(2-hydroxyethyl)-2,3-dimethylimidazo[1,2-a]pyridine-6-carboxamide, reference compound]",
48,260,690,,"Cc1cccc(C)c1CNc1cc(C(=O)NC[C@H](C)O)cn2c(C)c(C)nc12 [compound of the invention, 8-[(2,6-dimethylbenzyl)amino]-N-[(2S)-2-hydroxypropyl]-2,3-dimethylimidazo[1,2-a]pyridine-6-carboxamide]",91
